Test system: IL-1β production in PMA-differentiated THP-1 cells
Assay: IL-1β production in PMA-differentiated THP-1 cells stimulated with gramicidin (hTHP-1 assay, HTRF readout; Procedures 1-3)
Assay type: cell-based, human
Details: Homo sapiens, THP-1, hTHP-1 assay containing 2% fetal bovine serum; average; class symbols; read-out: hTHP-1 IC50 (Average IC50 of compounds in hTHP-1 assay)
Experimental: The Following Protocol is Suitable for Testing the Activity of the Compounds Disclosed Herein. Procedure 1: IL-1B Production in PMA-Differentiated THP-1 Cells Stimulated with Gramicidin.
THP-1 cells were purchased from the American Type Culture Collection and sub-cultured according to instructions from the supplier. Cells were cultured in complete RPMI 1640 (containing 10% heat inactivated FBS, penicillin (100 units/ml) and streptomycin (100 μg/ml)), and maintained in log phase prior to experimental setup. Prior to the experiment, compounds were dissolved in dimethyl sulfoxide (DMSO) to generate a 30 mM stock. The compound stock was first pre-diluted in DMSO to 3, 0.34, 0.042 and 0.0083 mM intermediate concentrations and subsequently spotted using Echo550 liquid handler into an empty 384-well assay plate to achieve desired final concentration (e.g. 100, 33, 11, 3.7, 1.2, 0.41, 0.14, 0.046, 0.015, 0.0051, 0.0017 μM). DMSO was backfilled in the plate to achieve a final DMSO assay concentration of 0.37%. The plate was then sealed and stored at room temperature until required.
THP-1 cells were treated with PMA (Phorbol 12-myristate 13-acetate) (20 ng/ml) for 16-18 hours. On the day of the experiment the media was removed and adherent cells were detached with trypsin for 5 minutes. Cells were then harvested, washed with complete RPMI 1640, spun down, and resuspended in RPMI 1640 (containing 2% heat inactivated FBS, penicillin (100 units/ml) and streptomycin (100 μg/ml). The cells were plated in the 384-well assay plate containing the spotted compounds at a density of 50,000 cells/well (final assay volume 50 μl). Cells were incubated with compounds for 1 hour and then stimulated with gramicidin (5 μM) (Enzo) for 2 hours. Plates were then centrifuged at 340 g for 5 min. Cell free supernatant (40 μL) was collected using a 96-channel PlateMaster (Gilson) and the production of IL-1β was evaluated by HTRF (cisbio). The plates were incubated for 18 h at 4° C. and read using the preset HTRF program (donor emission at 620 nm, acceptor emission at 668 nm) of the SpectraMax i3x spectrophotometer (Molecular Devices, software SoftMax 6). A vehicle only control and a dose titration of CRID3 (100-0.0017 μM) were run concurrently with each experiment.
Procedure 2: IL-1β Production in PMA-Differentiated THP-1 Cells Stimulated with Gramicidin.
THP-1 cells were purchased from the American Type Culture Collection and sub-cultured according to instructions from the supplier. Prior to experiments, cells were cultured in complete RPMI 1640 (containing 10% heat inactivated FBS, penicillin (100 units/ml) and streptomycin (100 μg/ml)), and maintained in log phase prior to experimental setup. Prior to the experiment THP-1 were treated with PMA (Phorbol 12-myristate 13-acetate) (20 ng/ml) for 16-18 hours. Compounds were dissolved in dimethyl sulfoxide (DMSO) to generate a 30 mM stock.
On the day of the experiment the media was removed and adherent cells were detached with trypsin for 5 minutes. Cells were then harvested, washed with complete RPMI 1640, spun down, resuspended in RPMI 1640 (containing 2% heat inactivated FBS, penicillin (100 units/ml) and streptomycin (100 μg/ml). The cells were plated in a 384-well plate at a density of 50,000 cells/well (final assay volume 50 μl). Compounds were first dissolved in assay medium to obtain a 5× top concentration of 500 μM. 10 step dilutions (1:3) were then undertaken in assay medium containing 1.67% DMSO. 5× compound solutions were added to the culture medium to achieve desired final concentration (e.g. 100, 33, 11, 3.7, 1.2, 0.41, 0.14, 0.046, 0.015, 0.0051, 0.0017 μM). Final DMSO concentration was at 0.37%. Cells were incubated with compounds for 1 hour and then stimulated with gramicidin (5 μM) (Enzo) for 2 hours. Plates were then centrifuged at 340 g for 5 min. Cell free supernatant (40 μL) was collected using a 96-channel PlateMaster (Gilson) and the production of IL-1β was evaluated by HTRF (cisbio). […]

Row | Structure (SMILES) | IC50
1 | Cc1oc([S@](N)(=O)=NC(=O)Nc2c3c(cc4c2CCC4)CCC3)cc1C(C)(C)O (single isomer, unassigned) [Example 3] | 0.2 to 1 µM
2 | CC(C)c1cc(F)cc(C(C)C)c1NC(=O)N=S(N)(=O)c1ccc(C(C)(C)O)cc1 (single isomer, unassigned) [Example 83, (S)- or (R)-N′-(4-fluoro-2,6-diisopropylphenylcarbamoyl)-4-(2-hydroxypropan-2-yl)benzenesulfonimidamide] | 1 to 5 µM
3 | Cc1cc(C(C)(C)O)sc1S(N)(=O)=NC(=O)Nc1c(C(C)C)cc(OC(F)F)cc1C(C)C (single isomer, unassigned) [Example 109, (S)- or (R)-N′-(4-(difluoromethoxy)-2,6-diisopropylphenylcarbamoyl)-5-(2-hydroxypropan-2-yl)-3-methylthiophene-2-sulfonimidamide] | 0.2 to 1 µM
4 | Cc1cc(C(C)(C)O)ccc1S(N)(=O)=NC(=O)Nc1c(C(C)C)cc(OC(F)F)cc1C1CC1 (single isomer, unassigned) [Example 119, (S)- or (R)-N′-(2-cyclopropyl-4-(difluoromethoxy)-6-isopropylphenylcarbamoyl)-4-(2-hydroxypropan-2-yl)-2-methylbenzenesulfonimidamide] | 5 to 30 µM
5 | CC(C)c1cc(F)cc(C(C)C)c1NC(=O)N=S(N)(=O)c1ccc(CN(C)C)cc1 (single isomer, unassigned) [Example 132, (S)- or (R)-4-((dimethylamino)-methyl)-N′-(4-fluoro-2,6-diisopropylphenylcarbamoyl)-benzenesulfonimidamide] | 1 to 5 µM
6 | CC(C)c1cc(OC(F)F)cc(C2CC2)c1NC(=O)N=S(N)(=O)c1ccc(CN(C)C)cc1 (single isomer, unassigned) [Example 135, (R)- or (S)-N′-(2-cyclopropyl-4-(difluoromethoxy)-6-isopropylphenylcarbamoyl)-4-((dimethylamino)methyl)benzenesulfonimidamide] | 1 to 5 µM
7 | CC(C)c1cc(F)cc(C(C)C)c1NC(=O)N=S(N)(=O)c1ccc(S(C)(=O)=O)cc1 (single isomer, unassigned) [Example 145, (R)- or (S)-N′-(4-fluoro-2,6-diisopropylphenylcarbamoyl)-4-(methylsulfonyl)-benzenesulfonimidamide] | 5 to 30 µM
8 | CC(C)c1cc(OC(F)F)cc(C2CC2)c1NC(=O)N=S(N)(=O)c1ccc(C(C)(C)O)cc1F (single isomer, unassigned) [Example 166, (S)- or (R)-N′-((2-cyclopropyl-4-(difluoromethoxy)-6-isopropylphoxyproyl)-2-fluoro-4-(2-hydroxypropan-2-yl)benzenesulfonimidamide] | 0.2 to 1 µM
9 | CC(C)(O)c1ccc(F)c(S(N)(=O)=NC(=O)Nc2c3c(c(F)c4c2CCC4)CCC3)c1 (single isomer, unassigned) [Example 168, (S)- or (R)-2-fluoro-N′-((8-fluoro-1,2,3,5,6,7-hexahydro-s-indacen-4-yl)carbamoyl)-5-(2-hydroxypropan-2-yl)benzenesulfonimidamide] | 0.2 to 1 µM
10 | CC(C)c1cc(C#N)cc(C(C)C)c1NC(=O)N=S(N)(=O)c1ccc(C(C)(C)O)c(CO)c1 (single isomer, unassigned) [Example 188, (S)- or (R)-N′-((4-cyano-2,6-diisopropylphenyl)carbamoyl)-3-(hydroxymethyl)-4-(2-hydroxypropan-2-yl)benzenesulfonimidamide] | 1 to 5 µM
11 | CC(C)c1cc(C#N)cc(C(C)C)c1NC(=O)N=S(N)(=O)c1sc(C(C)(C)O)nc1CO (single isomer, unassigned) [Example 192, (S)- or (R)-N′-((4-cyano-2,6-diisopropylphenyl)carbamoyl)-4-(hydroxymethyl)-2-(2-hydroxypropan-2-yl)thiazole-5-sulfonimidamide] | 0.2 to 1 µM

Same assay, conditions: Homo sapiens, THP-1, hTHP-1 assay containing 2% fetal bovine serum; average; given as bound; read-out: hTHP-1 IC50 (Average IC50 of compounds in hTHP-1 assay)

Row | Structure (SMILES) | IC50
12 | CC(C)c1cc(F)cc(C(C)C)c1NC(=O)N=S(N)(=O)c1ccc(C(C)(C)O)cc1 (single isomer, unassigned) [Example 84, (R)- or (S)-N′-(4-fluoro-2,6-diisopropylphenylcarbamoyl)-4-(2-hydroxypropan-2-yl)benzenesulfonimidamide] | > 30 µM
13 | Cc1cc(C(C)(C)O)sc1S(N)(=O)=NC(=O)Nc1c(C(C)C)cc(OC(F)F)cc1C(C)C (single isomer, unassigned) [Example 110, (R)- or (S)-N′-(4-(difluoromethoxy)-2,6-diisopropylphenylcarbamoyl)-5-(2-hydroxypropan-2-yl)-3-methylthiophene-2-sulfonimidamide] | > 30 µM
14 | Cc1cc(C(C)(C)O)ccc1S(N)(=O)=NC(=O)Nc1c(C(C)C)cc(OC(F)F)cc1C1CC1 (single isomer, unassigned) [Example 120, (R)- or (S)-N′-(2-cyclopropyl-4-(difluoromethoxy)-6-isopropylphenylcar-bamoyl)-4-(2-hydroxypropan-2-yl)-2-methylbenzenesulfonimidamidc] | > 30 µM
15 | CC(C)c1cc(F)cc(C(C)C)c1NC(=O)N=S(N)(=O)c1ccc(CN(C)C)cc1 (single isomer, unassigned) [Example 133, (R)- or (S)-4-((dimethylamino)methyl)-N′-(4-fluoro-2,6-diisopropylphenyl-carbamoyl)benzenesulfonimidamide] | > 30 µM
16 | CC(C)c1cc(OC(F)F)cc(C2CC2)c1NC(=O)N=S(N)(=O)c1ccc(CN(C)C)cc1 (single isomer, unassigned) [Example 134, (S)- or (R)-N′-(2-cyclopropyl-4-(difluoromethoxy)-6-isopropylphenylcarbamoyl)-4-((dimethylamino)methyl)benzenesulfonimidamide] | > 30 µM
17 | CC(C)c1cc(F)cc(C(C)C)c1NC(=O)N=S(N)(=O)c1ccc(S(C)(=O)=O)cc1 (single isomer, unassigned) [Example 144, (S)- or (R)-N′-(4-fluoro-2,6-diisopropylphenylcarbamoyl)-4-(methylsulfonyl)-benzenesulfonimidamide] | > 30 µM
18 | CC(C)c1cc(C#N)cc(C(C)C)c1NC(=O)N=S(N)(=O)c1ccc(C(C)(C)O)c(CO)c1 (single isomer, unassigned) [Example 189, (R)- or (S)-N′-((4-cyano-2,6-diisopropylphoxyproyl)-3-(hydroxymethyl)-4-(2-hydroxypropan-2-yl)benzenesulfonimidamide] | > 30 µM

Same assay, conditions: Homo sapiens, THP-1, hTHP-1 assay containing 2% fetal bovine serum; average; numeric bound printed without unit; read-out: hTHP-1 IC50 (Average IC50 of compounds in hTHP-1 assay)

Row | Structure (SMILES) | IC50
19 | CC(C)c1cc(OC(F)F)cc(C2CC2)c1NC(=O)N=S(N)(=O)c1ccc(C(C)(C)O)cc1F (single isomer, unassigned) [Example 167, (R)- or (S)-N′-((2-cyclopropyl-4-(difluoromethoxy)-6-isopropylphenyl)carbamoyl)-2-fluoro-4-(2-hydroxypropan-2-yl)benzenesulfonimidamide] | > 11.2 µM
20 | CC(C)(O)c1ccc(F)c(S(N)(=O)=NC(=O)Nc2c3c(c(F)c4c2CCC4)CCC3)c1 (single isomer, unassigned) [Example 169, (S)- or (R)-2-fluoro-N′-((8-fluoro-1,2,3,5,6,7-hexahydro-s-indacen-4-yl)carbamoyl)-5-(2-hydroxypropan-2-yl)benzenesulfonimidamide] | > 5.59 µM

Source: patent US10654816B2, “Compounds and compositions for treating conditions associated with NLRP activity” (NOVARTIS INFLAMMASOME RESEARCH, INC., priority 2017, dated 2020)
